The values that follow come from patent publication US20190314312A1, “COMBINATION THERAPY TO INCREASE ENDOGENOUS NITRIC OXIDE (NO) SYNTHESIS” (Yeda Research and Development Co. Ltd., priority 2016, published 2019).

The test system of one test is control mice. Kind of test: DSS colitis (0.8% DSS) in control mice, fisetin or NaNO2. Format: in vivo, mouse. The following applies: control (WT) mice, 0.8% DSS 5 days, fisetin 1 mg IP twice, FIGS. 4L-N. How it is done:
Colitis was induced on C57BL/6J.OlaaHsd mice. Mice were treated with 1% DSS for 6 days, followed by administration of either fiselin (1 mg in 30 μl DMSO IP, twice, in 3 days interval) citrulline 1% (wt/vol) solution in drinking water, the combination of both treatments or only DMSO as a control (30 μl DMSO IP, twice, in 3 days interval). […] FIGS. 4L-N—Colitis was induced on enterocytes CKO mice and compared to controls. Mice were treated with 0.8% DSS for 5 days, followed by administration with either NO donors; NaNO2 (100 mg/kg) or fisetin (1 mg in 30 μl DMSO IP, twice, in 3 days interval). […] Note that colitis severity is reduced by activating As1 in enterocytes, by citrulline and fisetin supplementation.
Colitis was induced in Vav1^Cre:As1^f/f mice and CD11c^Cre:As1^f/f with 1.5% DSS and with 0.8% DSS in the Villin^Cre:As1^f/f (wt/vol), (Dextran Sodium Sulfate, MP Biomedicals; molecular weight 36,000-50,000 Da). […]
Colonoscopy was performed on days 7 and 11 of the experiment to monitor for severity of colitis. […] The endoscopic procedure was viewed on a color monitor and digitally recorded on tape. Colitis was scored according to the Murine endoscopic index of colitis severity (MEICS), considering differences in the thickness of the bowel wall, changes in blood vessel integrity, mucosal surface, stool consistency or the presence of fibrin, scored each between 0 and 3. […]

Test [1] has as its system CD64+, CD11c+ macrophages. The test is described as follows: FACS analysis of colon CD64+, CD11c+ macrophages after colitis induction. The test is classed as in vivo, mouse. The following applies: fisetin vs control, FIGS. 14D-F. On the procedure:
Colon segment was flushed with cold PBS, longitudinally cut open and rinsed to remove residual luminal contents. Tissue was cut into 3- to 5-mm pieces and incubated in HBSS medium containing EDTA 0.5 M and Hepes 10 mM at 37° C. for 20 minutes, shaken at 180 rpm, to separate epithelial fraction. Supernatant was centrifuged at 4° C. at 500 g for 10 minutes. Recovered tissue was digested in HBSS medium with 2% fetal bovine serum (FBS), 0.05% collagenase II and 0.05% DNase I (Sigma) for 40 minutes. at 37° C., shaken at 180 rpm. LP cells were filtered through 65 μm mesh and centrifuged at 4° C. at 500 g for 10 minutes. The present inventors prepared single cell suspensions from mouse colon by enzymatic digestion and analyzed by polychromatic flow cytometry. Samples were stained with conjugated antibodies or matching isotype controls according to manufacturer's instructions. Data were acquired on an LSRII (BD Biosciences) or FACSCalibur instrument (Becton-Dickinson) with CellQuest software, with a MacsQuant instrument (Miltenyi, Bergisch Gladbach, Germany), and analyzed using BD FACSDiva 6 or FlowJo software (version 7.6.5, or version vX.0.7 Tree Star Inc) or MacsQuant. Colon cells were stained for 30 min at 4° C. in flow cytometry buffer (PBS, 10% FCS and 0.02% azide). For antigens that require intracellular staining (As1, iNOS and S-nitrosocystein), cell surface staining was followed by cell fixation and permeabilization with the Cytofix/Cytoperm kit (BD Biosciences) according to the manufacturer's instructions. […] After staining for cell surface antigens, intracellular NO was detected by incubation of cells for 15 min at 37° C. with 10 μM DAF-FM diacetate followed by extensive washing, according to the manufacturer's instructions (Molecular Probes). […] As1 was detected using anti-As1-ALEXA FLUOR® 488 (BD Biosciences), iNOS using anti-iNOS followed by anti-rat 488 (Jackson ImmunoResearch), and nitrosylation using anti-S-nitrosocystein (from abcam) followed by anti-mouse 488 (Jackson ImmunoResearch).
A general note: In flow cytometry, cells or beads pass a laser one at a time.

Regarding `O=c1c(O)c(-c2ccc(O)c(O)c2)oc2cc(O)ccc12` [fisetin, 3,7, 3′, 4′-tetrahydroxyflavone], the “effect of treatment on colitis (survival, body weight gain, colitis score)” value in the test with control mice is given as “improved colitis severity”. The “effect of treatment on colitis (survival, body weight gain, colitis score)” value in the test on control mice (listed as Fisetin) was “effective in the control group”. In test [1], the As1 levels result is given as “decrease”, the NO levels result was “decrease” and the iNOS levels result was “decrease”.
